Assay results reported in patent US10675300B2, “Group 3 metal compounds and use thereof in the treatment of solid tumors” (UNIVERSITÀ DEGLI STUDI DI SALERNO, priority 2016, dated 2020).
pIC50: −log10 of the molar value.

Test system: DU145 (prostate cancer) and MDA.MB213 (Triple Negative breast cancer) cells
Experiment: MTT cell growth inhibition assay on human tumor cell lines
Format: cell-based
Details: 48 hours exposition; for pIC50: read-out: DL50 (lethal dose 50, dose at which there is 50% of cell growth inhibition)
Text: (§1) FIG. 1 the evaluation of the inhibitory activity of CAM2 (a), CAM3 (b) and CAM4 (c) on the cell growth of DU145 cells in presence of different concentrations, determined by MTT assay. The cell viability was expressed as percentage of proliferated cells with respect to the cells treated with the different compounds and the same cells used as control and
as §1, with “2” for “1”, “MDA.MB231” for “DU145”, “control.” for “control and”
MDA.MB213—Human cell line of breast cancer acquired by ATCC (American Tissue Cell Colture—ATCC® HTB-26™), triple negative for ER receptor
DU145—Human cell line of prostate cancer acquired by ATCC (American Tissue Cell Colture—ATCC® HTB-81™)
MTT Cell Proliferation Assay Kit—Purchased by TREVIGEN—Catalog #4890-025-K
The compound was dissolved in a solution of DMSO concentrated at 100%, therefrom the dilutions programmed according to the scheme shown in figure A and B are obtained and in 96-multiwell plates 2×10^4 cells are deposited (plated).
After 24 hours the compounds under study in contact with the cells at the pre-established concentrations are used, in order to determine the lethal dose 50, that is the dose thereat there is 50% of cell growth inhibition.
After 48 hours of exposition to our compound, the growth inhibition effect is determined by means of a colorimetric assay.
The MTT assay is a measurement of sensitivity of cell proliferation based upon the decrease in the salt of tetrazolium, 3, [4,5-dimethyithiazol-2-]-2,5-diphenyl-bromide-tetrazolium (MTT).
(§2) Changes in the cell proliferative activity caused by our compounds can be quantified with MTT. MTT is reduced to an insoluble colouring agent, by the mitochondrial enzymes associated to the metabolic activity. MTT reduction is mainly due to the glycolytic activity inside the cell associated to the presence of NADH and NADPH.
The compound was dissolved in a solution of DMSO concentrated at 100%, therefrom the dilutions programmed according to the scheme shown in figure A and B are obtained, and in 96-multiwell plates 2×10^4 cells are deposited (plated).
After 24 hours the compounds under study in contact with the cells at pre-established concentrations are used, in order to determine the lethal dose 50, that is the dose thereat there is 50% of cell growth inhibition.
as §2, with “The MTT assay is a measurement of cell proliferation sensitivity based upon the reduction in the salt of tetrazolium, 3, [4,5-dimethylthiazol-2-]-2,5-diphenyl bromide-tetrazolium (MTT). Changes” for “Changes”
The compound was dissolved in a solution of DMSO concentrated at 100%, therefrom the dilutions programmed according to the scheme shown in A e B are obtained, in 96-multiwell plates 2×10^4 cells are deposited (plated).
as §2, with “MTT assay is a measurement of the cell proliferation sensitivity based upon the reduction in the salt of tetrazolium, 3, [4,5-dimethylthiazol-2-]-2,5-diphenyl bromide-tetrazolium (MTT). Changes” for “Changes”

[1] = cell line not specified (DU145 / MDA.MB213)
[2] = 5 μM, cell line not specified (DU145 / MDA.MB213)

Row | Substance | growth inhibition (10 μM (higher concentrations), cell line not specified) [%] | DL50 (lethal dose 50, dose at which there is 50% of cell growth inhibition) [1] | growth inhibition (lower concentrations (not specified), cell line not specified) [%] | growth inhibition [2] [%] | growth inhibition (40 μM (higher concentrations), cell line not specified) [%] | pIC50 [1] | growth inhibition (20 μM, cell line not specified (DU145 / MDA.MB213)) [%]
1 | [Cp-CH2—C6H5—OCH3)]ScCl2 [CAM3] | 95 | 5/10 | 40 | – | – | – | –
2 | [Cp-CH2—C6H5—OCH3]2ScCl [CAM4] | – | – | – | 14 | 88 | 4.70 | –
3 | [Cp-CH2—C6H5—OCH3]2YCl [CAM2] | – | – | – | 58 | – | > 5.30 | 95
